This is an account of results in US20220273666A1, “NANOPARTICLE FORMULATION OF BCL-2 INHIBITOR” (Recurium IP Holdings, LLC, priority 2019, published 2022).

One series concerns NCI-H146 cells. Briefly: NCI-H146 cell proliferation assay (CellTiter-Glo). The series is classed as cell-based. The following applies: Homo sapiens, 72 h treatment, read-out: H146 CTG IC50. The procedure: Cell proliferation was measured using the CellTiter-Glo® Luminescent Cell Viability Assay. The assay involved the addition of a single reagent (CellTiter-Glo® Reagent) directly to cells cultured in serum-supplemented medium. RS4;11 (ATCC, CRL-1873) cells were cultured according to ATCC recommendations and were seeded at 50,000 cells per well. NCI-H1963 cells (ATCC CRL-5982) were cultured according to ATCC recommendations and seeded at 12,000 cells per well. NCI-H146 (ATCC, HTB-173) cells were cultured according to ATCC recommendations and were seeded at 20,000 cells per well.
Each compound evaluated was prepared as a DMSO stock solution (10 mM). Compounds were tested in duplicate on each plate, with a 10-point serial dilution curve (1:3 dilution). Compound treatment (1.0 μL for RS4;11 and NCI-H1963, 10 μL for NCI-H146) was added from the compound dilution plate to the cell plate. The highest compound concentration was 10 μM (final), with a 0.1% final DMSO concentration. Plates were then incubated at 37° C., 5% CO2. After 48 h of compound treatment for RS4;11 or 72 h for NCI-H-1963 and NCI-H-146, cell plates were equilibrated at rt for approximately 30 mins. An equi-volume amount of CellTiter-G)® Reagent (40 (L for […] and NC-H1963, 100 μL for NCI-H-146)) was added to each well. Plates were mixed for 2 mins on an orbital shaker to induce cell lysis and then incubated at RT for 10 mins to stabilize the luminescent signal. Luminescence was recorded using a Envision or SpectraMax M5e plate reader according to CellTiter-Glo protocol. IC50 of each compound was calculated using GraphPad Prism by nonlinear regression analysis.
Background: ATP-based viability assays read luminescence as a measure of living cells.

The next series concerns the target T1, Bcl-XL (Homo sapiens, UniProt Q07817).
T1 construct: host or cells: T7 phage in E. coli host derived from BL21
Briefly: Bcl-2/Bcl-XL HTRF assay. The class given is binding. The following applies: 3 nM Bcl-XL, 40 nM FAM-Bad peptide. Background: In TR-FRET formats the signal depends on donor and acceptor labels being close together.

Another series concerns the target Bcl-2 (Homo sapiens, UniProt P10415). Description: Bcl-2/Bcl-XL HTRF assay.
For series [1] the following is noted: multiple oral administration under fed conditions; cited from earlier work.
The conditions of series [2]: Phase I/II clinical trials, chronic lymphocytic leukemia; cited from earlier work.

Where only a bound is given, the exact number is not on record here.

T1 sequence (Q07817 whole entry): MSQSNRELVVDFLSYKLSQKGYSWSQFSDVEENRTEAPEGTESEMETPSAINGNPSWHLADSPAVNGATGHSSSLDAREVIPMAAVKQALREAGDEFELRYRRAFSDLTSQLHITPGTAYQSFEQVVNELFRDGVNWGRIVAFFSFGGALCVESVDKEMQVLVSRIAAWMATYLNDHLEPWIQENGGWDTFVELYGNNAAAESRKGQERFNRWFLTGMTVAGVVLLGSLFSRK
Chain of Bcl-2 (P10415 whole entry): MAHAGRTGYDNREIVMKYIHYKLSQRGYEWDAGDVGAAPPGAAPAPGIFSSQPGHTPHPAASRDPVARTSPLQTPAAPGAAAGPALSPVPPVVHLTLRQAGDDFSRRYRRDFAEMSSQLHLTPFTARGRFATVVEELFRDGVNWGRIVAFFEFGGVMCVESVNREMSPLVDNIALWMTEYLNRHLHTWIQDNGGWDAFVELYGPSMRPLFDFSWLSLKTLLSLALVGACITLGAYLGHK

The term IC50 denotes the midpoint of a concentration-inhibition curve. Consider `COC1(C)CCN(CC[C@H](CSc2ccccc2)Nc2ccc(S(=O)(=O)NC(=O)c3ccc(N4CCN(CC5=C(C67CC(C(F)F)(C6)C7)CC(C)(C)CC5)CC4)cc3)cc2S(=O)(=O)C(F)(F)F)CC1` [Example 101], for which the IC50 with NCI-H146 cells was not above 100 nM.

Regarding `COC1CCN(CC[C@H](CSc2ccccc2)Nc2ccc(S(=O)(=O)NC(=O)c3ccc(N4CCN(CC5=C(C67CC(C(F)F)(C6)C7)CC(C)(C)CC5)CC4)cc3)cc2S(=O)(=O)C(F)(F)F)CC1` [Example 99, (R)-4-(4-((2-(3-(difluoromethyl)bicyclo[1.1.1]pentan-1-yl)-4,4-dimethylcyclohex-1-en-1-yl)methyl)piperazin-1-yl)-N-((4-((4-(4-methoxypiperidin-1-yl)-1-(phenylthio)butan-2-yl)amino)-3-((trifluoromethyl)sulfonyl)phenyl)sulfonyl)benzamide], the IC50 at Bcl-XL was less than 10 nM; in the series with NCI-H146 cells it was not above 100 nM; at Bcl-2, less than 10 nM. Consider `CC(C)OC1CCN(CC[C@H](CSc2ccccc2)Nc2ccc(S(=O)(=O)NC(=O)c3ccc(N4CCN(CC5=C(C67CC(C(F)F)(C6)C7)CC(C)(C)CC5)CC4)cc3)cc2S(=O)(=O)C(F)(F)F)CC1` [Example 106], for which the IC50 in the series with NCI-H146 cells was 100 to 1000 nM.

On to `CC1(C)CCC(CN2CCN(c3ccc(C(=O)NS(=O)(=O)c4ccc(NCC5CCOCC5)c([N+](=O)[O-])c4)c(Oc4cnc5[nH]ccc5c4)c3)CC2)=C(c2ccc(Cl)cc2)C1` [ABT-199, venetoclax], for which, in series [1], the “time to maximum plasma concentration” value was 5 to 8 h. As to `CN1CCN(CC[C@H](CSc2ccccc2)Nc2ccc(S(=O)(=O)NC(=O)c3ccc(N4CCN(CC5=C(C67CC(C(F)F)(C6)C7)CC(C)(C)CC5)CC4)cc3)cc2S(=O)(=O)C(F)(F)F)CC1` [Example 98, (R)-4-(4-((2-(3-(difluoromethyl)bicyclo[1.1.1]pentan-1-yl)-4,4-dimethylcyclohex-1-en-1-yl)methyl)piperazin-1-yl)-N-((4-((4-(4-methylpiperazin-1-yl)-1-(phenylthio)butan-2-yl)amino)-3-((trifluoromethyl)sulfonyl)phenyl)sulfonyl)benzamide], the IC50 against Bcl-XL is less than 10 nM; in the series on NCI-H146 cells it was 100 to 1000 nM; on Bcl-2 it was less than 10 nM. On to `CC1(C)CCC(CN2CCN(c3ccc(C(=O)NS(=O)(=O)c4ccc(N[C@H](CCN5CCCC5)CSc5ccccc5)c(S(=O)(=O)C(F)(F)F)c4)cc3)CC2)=C(C23CC(C(F)F)(C2)C3)C1` [Example 100, (R)-4-(4-((2-(3-(difluoromethyl)bicyclo[1.1.1]pentan-1-yl)-4,4-dimethylcyclohex-1-en-1-yl)methyl)piperazin-1-yl)-N-((4-((1-(phenylthio)-4-(pyrrolidin-1-yl)butan-2-yl)amino)-3-((trifluoromethyl)sulfonyl)phenyl)sulfonyl)benzamide], for which the results for the IC50 against Bcl-XL, with NCI-H146 cells and against Bcl-2 were less than 10 nM, not above 100 nM and less than 10 nM, respectively. Regarding `CC(C)N1CCN(CC[C@H](CSc2ccccc2)Nc2ccc(S(=O)(=O)NC(=O)c3ccc(N4CCN(CC5=C(C67CC(C(F)F)(C6)C7)CC(C)(C)CC5)CC4)cc3)cc2S(=O)(=O)C(F)(F)F)CC1` [Example 107, (R)-4-(4-((2-(3-(difluoromethyl)bicyclo[1.1.1]pentan-1-yl)-4,4-dimethylcyclohex-1-en-1-yl)methyl)piperazin-1-yl)-N-((4-((4-(4-isopropylpiperazin-1-yl)-1-(phenylthio)butan-2-yl)amino)-3-((trifluoromethyl)sulfonyl)phenyl)sulfonyl)benzamide], in the series on NCI-H146 cells, the IC50 was not above 100 nM. On the same count and under the same terms, in the case of `CC1(C)CCC(CN2CCN(c3ccc(C(=O)NS(=O)(=O)c4ccc(N[C@H](CCN5CCO[C@H](CO)C5)CSc5ccccc5)c(S(=O)(=O)C(F)(F)F)c4)cc3)CC2)=C(C23CC(C(F)F)(C2)C3)C1` [Example 102] it was not above 100 nM. Consider `CC1(C)CCC(c2ccc(Cl)cc2)=C(CN2CCN(c3ccc(C(=O)NS(=O)(=O)c4ccc(N[C@H](CCN5CCOCC5)CSc5ccccc5)c(S(=O)(=O)C(F)(F)F)c4)cc3)CC2)C1` [ABT-263, Navitoclax, reference compound], for which the IC50 in the series on NCI-H146 cells was not above 100 nM. For the same compound, in series [2], the “side effect limiting dosage” value is “occurrence of thrombocytopenia”.

Consider `CC1(C)CCC(CN2CCN(c3ccc(C(=O)NS(=O)(=O)c4ccc(N[C@H](CCN5CCO[C@@H](CO)C5)CSc5ccccc5)c(S(=O)(=O)C(F)(F)F)c4)cc3)CC2)=C(C23CC(C(F)F)(C2)C3)C1` [Example 103], for which, in the series on NCI-H146 cells, the IC50 lay within 100 to 1000 nM. As for `COC(=O)C1(C)CCN(CC[C@H](CSc2ccccc2)Nc2ccc(S(=O)(=O)NC(=O)c3ccc(N4CCN(CC5=C(C67CC(C(F)F)(C6)C7)CC(C)(C)CC5)CC4)cc3)cc2S(=O)(=O)C(F)(F)F)CC1` [Example 104, (R)-Methyl 1-(3-((4-(N-(4-(4-((2-(3-(difluoromethyl)bicyclo[1.1.1]pentan-1-yl)-4,4-dimethylcyclohex-1-en-1-yl)methyl)piperazin-1-yl)benzoyl)sulfamoyl)-2-((trifluoromethyl)sulfonyl)phenyl)amino)-4-(phenylthio)butyl)-4-methylpiperidine-4-carboxylate], the IC50 was less than 10 nM against Bcl-XL, not above 100 nM with NCI-H146 cells and less than 10 nM against Bcl-2. Consider `CCOC1CCN(CC[C@H](CSc2ccccc2)Nc2ccc(S(=O)(=O)NC(=O)c3ccc(N4CCN(CC5=C(C67CC(C(F)F)(C6)C7)CC(C)(C)CC5)CC4)cc3)cc2S(=O)(=O)C(F)(F)F)CC1` [Example 105, (R)-4-(4-((2-(3-(difluoromethyl)bicyclo[1.1.1]pentan-1-yl)-4,4-dimethylcyclohex-1-en-1-yl)methyl)piperazin-1-yl)-N-((4-((4-(4-ethoxypiperidin-1-yl)-1-(phenylthio)butan-2-yl)amino)-((trifluoromethyl)sulfonyl)phenyl)sulfonyl)benzamide], for which the IC50 with NCI-H146 cells is not above 100 nM. For the compound `CCC12CC(C3=C(CN4CCN(c5ccc(C(=O)NS(=O)(=O)c6ccc(N[C@H](CCN7CCC(OC)CC7)CSc7ccccc7)c(S(=O)(=O)C(F)(F)F)c6)cc5)CC4)CCC(C)(C)C3)(C1)C2` [Example 108, (R)-4-(4-((2-(3-ethylbicyclo[1.1.1]pentan-1-yl)-4,4-dimethylcyclohex-1-en-1-yl)methyl)piperazin-1-yl)-N-((4-((4-(4-methoxypiperidin-1-yl)-1-(phenylthio)butan-2-yl)amino)-3-((triluoromethyl)sulfonyl)phenyl)sulfonyl)benzamide], in the series with NCI-H146 cells, the IC50 was not above 100 nM.
